Assay results from patent US20090023645A1, “AIB1, a novel steroid receptor co-activator” (The Government of the United States of America as …, priority 1997, published 2009).

How the values were obtained:
ER = assay: transient transfection ER reporter (luciferase) transcription assay in COS-1 cells; assay type: cell-based; settings: 100 nM 4-hydroxytamoxifen in place of 17β-estradiol
Procedure: COS-1 cells were transiently transfected with 250 ng ER expression vector (pHEGO-hyg), 10 ng of luciferase reporter plasmid (pGL3.luc.3ERE or 10 ng pGL3 lacking ERE) and increasing amounts of pcDNA3.1-AIB1 and incubated in the absence (open bars) or presence of 10 nM 17β-stradiol (E2, solid bars) or 100 nM 4-hydroxytamoxifen (hatched bars). Luciferase activity was expressed in relative luminescence units (RLU). The data are the mean of three determinations from one of four replicate experiments. Error bars indicate one standard deviation.
To determine whether expression of AIB1 increases ER ligand-dependent transactivation, transient transfection assays were performed. The effect of increasing levels of AIB1 on transcription of an ER dependent reporter was measured. […] This effect was not observed when the estrogen antagonist, 4-hydroxytamoxifen (4-OHT), was substituted for 17β-estradiol or when the estrogen response element (ERE) was removed from the reporter plasmid (FIG. 3).
To determine the effect of AIB1 on estrogen-dependent transcription, an ER reporter plasmid can be used. […] Reporter activities were determined using the Dual-Luciferase Reporter Assay System (Promega) and the results expressed in relative luminescence units (RLU; luciferase/Renilla luciferase). pRL-CMV and pGL3-promoter were obtained from Promega. pHEGO-hyg was obtained from ATCC. […]

recurrent breast cancer = assay: response to tamoxifen therapy in patients with recurrent breast cancer and ER-positive primary tumors; assay type: in vivo
Procedure: Loss of estrogen receptor in recurrent breast caner is also associated with poor response to endocrine therapy. […] The frequency of hormone receptor status changes between primary and recurrent tumors and whether such a change might explain unresponsiveness to endocrine therapy was examined. Primary breast cancer samples and matched asynchronous recurrences were studied from 50 patients who had not received any adjuvant therapy. ER and progesterone receptor (PR) status was determined immunohistochemically from histologically representative formalin-fixed paraffin-embedded tumor samples. ER status was ascertained by mRNA in situ hybridization. Thirty-five (70%) of 50 primary tumors were positive for ER and 30 (60%) for PR. Hormone receptor status of the recurrent tumor differed from that of the primary tumor in 18 cases (36%). Discordant cases were due to the loss of ER (n=6), loss of PR (n=6), or loss of both receptors (n=6). Receptor-negative primary tumors were always accompanied by receptor-negative recurrences. Among 27 patients with ER-positive primary tumors, loss of ER was a significant predictor (P=0.0085) of poor response to subsequent endocrine therapy. […] Loss of ER expression in recurrent breast cancer predicts poor response to endocrine therapy in primarily ER-positive patients.

metastatic tumor = assay: tamoxifen treatment of a patient whose metastatic breast tumor showed high AIB1 copy number; assay type: in vivo; settings: one post-menopausal patient, ER/PR positive metastatic tumor with high AIB1 copy number

Row | Compound | AIB1 dose dependent increase in transcription when the ligand is substituted for 17β-estradiol (ER) | response rate to tamoxifen therapy (recurrent breast cancer; patients whose recurrent tumors retained ER expression (14 of 19)) [%] | response rate to tamoxifen therapy (recurrent breast cancer; patients with lost ER expression in the recurrent tumor (one of eight)) [%] | patient response to tamoxifen treatment (metastatic tumor)
1 | 4-hydroxytamoxifen | not observed |  |  | 
2 | CC/C(=C(\c1ccccc1)c1ccc(OCCN(C)C)cc1)c1ccccc1 [tamoxifen] |  | 74 | 12.5 | responded favorably
